Reference: patent publication US20240208994A1, “PLASMA KALLIKREIN INHIBITORS” (Merck Sharp & Dohme LLC, priority 2021, published 2024)

Tests used:
Human plasma kallikrein = target: T1, Human plasma kallikrein (Homo sapiens, UniProt P03952); assay: Plasma Kallikrein Assay; assay type: biochemical; conditions: purified Human plasma kallikrein 0.5 nM, substrate Acetyl-K-P-R-AFC, HEPES pH 7.4, fluorescence 405 Ex/510 Em; read-out: PKal IC50
T1 construct: yields a heavy chain (371 amino acids) and a light chain (248 amino acids); purchased Enzyme Research Laboratories
Description: (§1) The effectiveness of a compound of the present invention as an inhibitor of plasma kallikrein can be determined using a relevant purified serine protease, and an appropriate synthetic substrate. The rate of hydrolysis of the chromogenic or fluorogenic substrate by the relevant serine protease was measured both in the absence and presence of compounds of the present invention. Assays were conducted at rt or at 37° C. […] A decrease in the rate of fluorescence change in the presence of inhibitor is indicative of enzyme inhibition. Such methods are known to one skilled in the art. The results of this assay are expressed as the half-maximal inhibitory concentrations (IC50), or the inhibitory constant, Ki.
Plasma kallikrein determinations were made in 50 mM HEPES buffer at pH 7.4 containing 150 mM NaCl, 5 mM CaCl2), and 0.1% PEG 8000 (polyethylene glycol: Fisher Scientific). Determinations were made using purified Human plasma kallikrein at a final concentration of 0.5 nM (Enzyme Research Laboratories) and the synthetic substrate, Acetyl-K-P-R-AFC (Sigma #C6608) at a concentration of […].
Activity assays were performed by diluting a stock solution of substrate at least tenfold to a final concentration ≤0.2 Km into a solution containing enzyme or enzyme equilibrated with inhibitor. Times required to achieve equilibration between enzyme and inhibitor were determined in control experiments. The reactions were performed under linear progress curve conditions and fluorescence increase measured at 405 Ex/510 Em nm. Values were converted to percent inhibition of the control reaction (after subtracting 100% Inhibition value). IC50 was determined by inflection point from a four parameter logistic curve fit. Ki was calculated using the Cheng Prusoff equation, Ki=IC50/(1+([S]/Km)).

human factor XIa = human factor XIa (Homo sapiens, UniProt P03951); assay: Factor XIa Assay; assay type: biochemical; conditions: human factor XIa 0.04 nM, 30 min pre-incubation at 25° C., substrate GPR-AFC, pH 7.4, 60 min incubation; read-out: FXIa IC50
Description: as §1, with “Coagulation factor XIa” for “plasma kallikrein”
Compounds were pre-incubated for 30 min at 25° C. with human (0.04 nM) factor XIa in 50 mM HEPES buffer with 150 mM sodium chloride, 5 mM calcium chloride, 0.1% PEG 8000, pH 7.4. factor XIa enzymatic activity was determined by addition of the substrate glycine-proline-arginine-7-amido-4-trifluoromethylcoumarin (GPR-AFC) and measurement of the fluorescence at 400/505 nm after a 60 min incubation at 25° C. The % inhibition for each data point was calculated from the data and analyzed using the log (inhibitor) vs. response four parameters equation to determine the half-maximal inhibitory concentrations (IC50). The IC50 were converted to equilibrium inhibitory constants (Ki) using the Cheng-Prusoff equation.

T1 sequence (P03952 391-638 limits assumed): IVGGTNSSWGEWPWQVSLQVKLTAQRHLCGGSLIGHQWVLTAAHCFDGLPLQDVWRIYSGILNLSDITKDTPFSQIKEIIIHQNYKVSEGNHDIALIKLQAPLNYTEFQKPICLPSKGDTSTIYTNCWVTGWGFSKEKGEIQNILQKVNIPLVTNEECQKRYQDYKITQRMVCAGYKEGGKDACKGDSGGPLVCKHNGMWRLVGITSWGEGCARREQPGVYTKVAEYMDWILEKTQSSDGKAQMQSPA
T1 sequence (P03952 20-390 partner limits assumed): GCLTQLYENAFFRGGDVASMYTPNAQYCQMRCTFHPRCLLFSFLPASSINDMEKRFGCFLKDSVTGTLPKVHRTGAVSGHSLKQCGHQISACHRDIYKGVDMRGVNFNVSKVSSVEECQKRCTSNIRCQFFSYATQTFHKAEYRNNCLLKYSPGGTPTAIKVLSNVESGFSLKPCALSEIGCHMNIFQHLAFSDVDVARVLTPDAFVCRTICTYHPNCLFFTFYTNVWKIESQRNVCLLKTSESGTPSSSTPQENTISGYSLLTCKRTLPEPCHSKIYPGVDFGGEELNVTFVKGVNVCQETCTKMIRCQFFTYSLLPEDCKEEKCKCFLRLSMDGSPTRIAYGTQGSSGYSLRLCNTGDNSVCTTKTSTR
Sequence of human factor XIa (P03951 388-625 limits assumed): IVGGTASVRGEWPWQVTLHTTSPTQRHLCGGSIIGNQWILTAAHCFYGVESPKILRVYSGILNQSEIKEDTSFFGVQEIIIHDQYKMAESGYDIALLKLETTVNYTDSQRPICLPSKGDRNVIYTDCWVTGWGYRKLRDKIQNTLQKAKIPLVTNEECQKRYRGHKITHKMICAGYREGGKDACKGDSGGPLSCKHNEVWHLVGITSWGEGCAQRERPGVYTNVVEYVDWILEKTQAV
Sequence of human factor XIa (P03951 19-387 partner limits assumed): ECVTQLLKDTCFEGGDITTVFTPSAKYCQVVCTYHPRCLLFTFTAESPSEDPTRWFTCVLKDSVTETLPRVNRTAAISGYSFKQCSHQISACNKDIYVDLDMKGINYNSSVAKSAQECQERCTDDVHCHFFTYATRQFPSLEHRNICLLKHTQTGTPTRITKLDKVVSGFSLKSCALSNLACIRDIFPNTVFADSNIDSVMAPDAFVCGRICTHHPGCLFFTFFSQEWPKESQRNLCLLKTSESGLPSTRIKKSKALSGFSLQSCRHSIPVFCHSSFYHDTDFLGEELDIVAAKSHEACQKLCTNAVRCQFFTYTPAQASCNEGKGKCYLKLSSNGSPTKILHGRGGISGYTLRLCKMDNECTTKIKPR

| IC50 (Human plasma kallikrein) [nM] | IC50 (human factor XIa) [nM] | Structure (SMILES) |
| --- | --- | --- |
| 24.5 | 280 | Nc1c(Cl)c(-c2ncccn2)nn1CC(=O)N1CCC[C@@]2(C1)OC(=O)Nc1ccc(Cl)c(F)c12 [Example 35, (R)-1′-(2-(5-Amino-4-chloro-3-(pyrimidin-2-y1)-1H-pyrazol-1-yl)acetyl)-6-chloro-5-fluorospiro[benzo[d][1,3]oxazine-4,3′-piperidin]-2(1H)-one] |
| 5.7 | 648 | Nc1cc(-c2ncc(F)cc2F)nn1CC(=O)N1CCC[C@@]2(C1)OC(=O)Nc1ccc(Cl)c(F)c12 [Example 32, (R)-1′-(2-(5-Amino-3-(3,5-difluoropyridin-2-y1)-1H-pyrazol-1-yl)acetyl)-6-chloro-5-fluorospiro[benzo [d][1,3]oxazine-4,3′-piperidin]-2(1H)-one] |
| 4.6 | 165 | Nc1cc(-c2ccccc2F)nn1CC(=O)N1CC[C@@]2(C1)OC(=O)Nc1ccc(Cl)c(F)c12 [Example 56, (R)-1′-(2-(5-Amino-3-(2-fluorophenyl)-1H-pyrazol-1-yl)acetyl)-6-chloro-5-fluorospiro[benzo[d][1,3]oxazine-4,3′-pyrrolidin]-2(1H)-one] |
| 21.9 | 1560 | Nc1cc(-c2ccc(Cl)cc2)nn1CC(=O)N1CC[C@@]2(C1)OC(=O)Nc1ccc(Cl)c(F)c12 [Example 65, (R)-1′-(2-(5-Amino-3-(4-chlorophenyl)-1H-pyrazol-1-yl)acetyl)-6-chloro-5-fluorospiro[benzo[d] [1,3]oxazine-4,3′-pyrrolidin]-2(1H)-one] |
| 5.1 | 289 | Cc1ccccc1-c1cc(N)n(CC(=O)N2CC[C@@]3(C2)OC(=O)Nc2ccc(Cl)c(F)c23)n1 [Example 54, (R)-1′-(2-(5-Amino-3-(o-tolyl)-1H-pyrazol-1-yl)acetyl)-6-chloro-5-fluorospiro[benzo[d][1,3]oxazine-4,3′-pyrrolidin]-2(1H)-one] |
| 24.3 | 862 | Cc1cc(-c2cc(N)n(CC(=O)N3CC[C@@]4(C3)OC(=O)Nc3ccc(Cl)c(F)c34)n2)no1 [Example 60, (R)-1′-(2-(5-Amino-3-(5-methylisoxazol-3-y1)-1H-pyrazol-1-yl)acetyl)-6-chloro-5-fluorospiro[benzo[d][1,3]oxazine-4,3′-pyrrolidin]-2(1H)-one] |
| 2.2 | 102 | Nc1cc(-c2c(F)cccc2F)nn1CC(=O)N1CC[C@@]2(C1)OC(=O)Nc1ccc(Cl)c(F)c12 [Example 37, (R)-1′-(2-(5-Amino-3-(2,6-difluorophenyl)-1H-pyrazol-1-yl)acetyl)-6-chloro-5-fluorospiro[benzo[d][1.3]oxazine-4,3′-pyrrolidin]-2(1H)-one] |
| 11.2 | 389 | Nc1cc(-c2cncc(Br)c2)nn1CC(=O)N1CC[C@@]2(C1)OC(=O)Nc1ccc(Cl)c(F)c12 [Example 44, (R)-1′-(2-(5-Amino-3-(5-bromopyridin-3-y1)-1H-pyrazol-1-yl)acetyl)-6-chloro-5-fluorospiro[benzo[d][1,3]oxazine-4,3'-pyrrolidin]-2(1H)-one] |
| 32.3 | 1250 | Nc1c(Cl)c(C2CC2)nn1CC(=O)N1CCC[C@@]2(C1)OC(=O)Nc1ccc(Cl)c(F)c12 [Example 29, (R)-1′-(2-(5-Amino-4-chloro-3-cyclopropyl-1H-pyrazol-1-yl)acetyl)-6-chloro-5-fluorospiro[benzo[d][1,3]oxazine-4,3'-piperidin]-2(1H)-one] |
| 8.4 | 826 | Nc1cc(-c2ncccc2F)nn1CC(=O)N1CCC[C@@]2(C1)OC(=O)Nc1ccc(Cl)c(F)c12 [Example 36, (R)-1′-(2-(5-Amino-3-(3-fluoropyridin-2-y1)-1H-pyrazol-1-yl)acetyl)-6-chloro-5-fluorospiro [benzo[d][1,3]oxazine-4,3′-piperidin]-2(1H)-one] |

The next lines start with the molecule.

| Structure (SMILES) | IC50 (Human plasma kallikrein) [nM] | IC50 (human factor XIa) [nM] |
| --- | --- | --- |
| CC1(c2cc(N)n(CC(=O)N3CC[C@@]4(C3)OC(=O)Nc3ccc(Cl)c(F)c34)n2)CC1 [Example 3, (R)-1′-(2-(5-Amino-3-(1-methylcyclopropyl)-1H-pyrazol-1-yl)acetyl)-6-chloro-5-fluorospiro[benzo[d][1,3]oxazine-4,3′-pyrrolidin]-2(1H)-one] | 37.8 | 347 |
| Nc1cc(-c2ccc(OC(F)(F)F)cc2)nn1CC(=O)N1CC[C@@]2(C1)OC(=O)Nc1ccc(Cl)c(F)c12 [Example 7, (R)-1′-(2-(5-Amino-3-(4-(trifluoromethoxy)phenyl)-1H-pyrazol-1-yl)acetyl)-6-chloro-5-fluorospiro[benzo[d][1,3]oxazine-4,3′-pyrrolidin]-2(1H)-one] | 49 | 4140 |
| COc1cccc(-c2cc(N)n(CC(=O)N3CC[C@@]4(C3)OC(=O)Nc3ccc(Cl)c(F)c34)n2)c1 [Example 8, (R)-1′-(2-(5-Amino-3-(3-methoxyphenyl)-1H-pyrazol-1-yl)acetyl)-6-chloro-5-fluorospiro[benzo[d][1,3]oxazine-4,3′-pyrrolidin]-2(1H)-one] | 11.8 | 679 |
| COc1ccc(-c2cc(N)n(CC(=O)N3CC[C@@]4(C3)OC(=O)Nc3ccc(Cl)c(F)c34)n2)cc1 [Example 6, (R)-1′-(2-(5-Amino-3-(4-methoxyphenyl)-1H-pyrazol-1-yl)acetyl)-6-chloro-5-fluorospiro[benzo[d][1,3]oxazine-4,3′-pyrrolidin]-2(1H)-one] | 10.1 | 904 |
| Nc1c2c(nn1CC(=O)N1CC[C@@]3(C1)OC(=O)Nc1ccc(Cl)c(F)c13)-c1ccccc1C2 [Example 14, (R)-1′-(2-(3-Aminoindeno[1,2-c]pyrazol-2(4H)-y1)acetyl)-6-chloro-5-fluorospiro[benzo[d] [1,3]oxazine-4,3′-pyrrolidin]-2(1H)-one] | 3.3 | 29 |
| Nc1cc(-c2ncc(F)cc2F)nn1CC(=O)N1CC[C@@]2(C1)OC(=O)Nc1ccc(Cl)c(F)c12 [Example 27, (R)-1′-(2-(5-Amino-3-(3,5-difluoropyridin-2-yl)-1H-pyrazol-1-yl)acetyl)-6-chloro-5-fluorospiro[benzo[d][1,3]oxazine-4,3′-pyrrolidin]-2(1H)-one] | 25.3 | 424 |
| Nc1cc(-c2cccnc2)nn1CC(=O)N1CC[C@@]2(C1)OC(=O)Nc1ccc(Cl)c(F)c12 [Example 9, (R)-1′-(2-(5-Amino-3-(pyridin-3-yl)-1H-pyrazol-1-yl)acetyl)-6-chloro-5-fluorospiro[benzo[d][1,3]oxazine-4,3′-pyrrolidin]-2(1H)-one] | 12.9 | 389 |
| Nc1c(Cl)c(-c2ccccc2)nn1CC(=O)N1CC[C@@]2(C1)OC(=O)Nc1ccc(Cl)c(F)c12 [Example 20, (R)-1′-(2-(5-Amino-4-chloro-3-phenyl-1H-pyrazol-1-yl)acetyl)-6-chloro-5-fluorospiro[benzo[d][1,3]oxazine-4,3′-pyrrolidin]-2(1H)-one] | 42.3 | 214 |
| Nc1cc(-c2cccc(Cl)c2)nn1CC(=O)N1CCC[C@@]2(C1)OC(=O)Nc1ccc(Cl)c(F)c12 [Example 16, (R)-1′-(2-(5-Amino-3-(3-chlorophenyl)-1H-pyrazol-1-yl)acetyl)-6-chloro-5-fluorospiro[benzo[d][1,3]oxazine-4,3′-piperidin]-2(1H)-one] | 20.4 | 2820 |
| Nc1cc(-c2ccc(F)cc2)nn1CC(=O)N1CC[C@@]2(C1)OC(=O)Nc1ccc(Cl)c(F)c12 [Example 1, (R)-1′-(2-(5-Amino-3-(4-fluorophenyl)-1H-pyrazol-1-yl)acetyl)-6-chloro-5-fluorospiro[benzo[d][1,3]oxazine-4,3′-pyrrolidin]-2(1H)-one 2,2,2-trifluoroacetate] | 9.9 | 513 |
| Nc1cc(-c2cccnn2)nn1CC(=O)N1CC[C@@]2(C1)OC(=O)Nc1ccc(Cl)c(F)c12 [Example 25, (R)-1′-(2-(5-Amino-3-(pyridazin-3-yl)-1H-pyrazol-1-yl)acetyl)-6-chloro-5-fluorospiro[benzo[d][1,3]oxazine-4,3′-pyrrolidin]-2(1H)-one] | 12.7 | 367 |
